Measurements as given in paper PMC9287138, “Proteasome activator 28γ (PA28γ) allosterically activates trypsin-like proteolysis by binding to the α-ring of the 20S proteasome” (The Journal of Biological Chemistry, 2022).

Target: T1, human 20S proteasome (H20S) (Homo sapiens, UniProt P28074+Q99436)
T1 construct: gene PSMB5; with Proteasome subunit beta type-6 (caspase-like site); Proteasome subunit alpha type-6; Proteasome subunit alpha type-2; Proteasome subunit alpha type-4; Proteasome subunit alpha type-7; Proteasome subunit alpha type-5; Proteasome subunit alpha type-1; Proteasome subunit alpha type-3; Proteasome subunit beta type-3; Proteasome subunit beta type-2; Proteasome subunit beta type-1; Proteasome subunit beta type-4
Assay: inhibition of boc-RLR-AMC hydrolysis
Format: biochemical

inhibition at 40 µM: 94 to 100%
Structure (SMILES): CC(=O)N[C@@H](CC(C)C)C(=O)N[C@@H](CC(C)C)C(=O)N[C@H](C=O)CCCNC(=N)N [leupeptin]
